One compound from US20220047687A1, “CHEMICAL SCALPEL” (FUNDACIÓN INSTITUTO DE INVESTIGACIÓN SANITARIA FUNDACIÓN …, priority 2019, published 2022) can be followed below.

“Also recorded” adds a separate entry of the source.

Data set [1] deals with abdominal organs and peritoneum. Briefly: Survival and necropsy of healthy rats after peritoneal washing (groups A, B). From the text:
During this phase, a series of survival experiments were established with various work groups and subgroups to learn about the co-adjuvant or enhancing role of collagenase in the treatment of peritoneal tumors with chemotherapeutic agents such as mitomycin C:
Each group initially consisted of 6 rats (2×3). In the initial design, 3 animals were sacrificed after 15 days and the rest were left until the conditions of the animals required them to be sacrificed (subcutaneous tumor growth >0.5 cm in diameter) or a maximum of 2 months.

Data set [2] concerns peritoneal carcinomatosis (DHD cells). Briefly: Survival and necropsy of rats with carcinomatosis after peritoneal washing (groups D, E, F). Conditions: for Observations (necropsy): group E, Mito 5 mg; for outcome of group E: mitomycin 5 mg/animal, large amount of analgesia. Type of data set: in vivo, rat. The procedure:
(§1) The procedure was performed 2 times in the TCQ group, the first time with collagenase and after 2 minutes peritoneal washing with mitomycin C at the different concentrations to be tested was repeated. […] Blood was also collected from all the animals before sacrificing them, the blood was processed within the hour following its extraction to obtain plasma and to analyze, on one hand, the existence of the mutated KRAS oncogene (mutation in codon 12 of exon 1 expressed by DHD cells), and on the other hand the existence of collagenase traces or residues in blood after the peritoneal washes. A digital PCR was used for the KRAS oncogene localization study. For the collagenase trace study, the anonymized samples were sent to Lyposmol laboratories for the performance of specific anti-MMP-1 and anti-MMP-2 ELISAS.
Each group initially consisted of 6 rats (2×3).

Data set [3] relates to mutated KRAS oncogene. Description: Digital PCR of KRAS in plasma. The format is in vivo, rat. The conditions noted are these: for Mutated KRAS event no.: plasma. The protocol:
as §1
To analyze the presence of mutated KRAS in the blood of the different groups by means of digital PCR, DNA was extracted from at least 2 ml of plasma/group by means of the QlAamp Circulating Nucleic Acid kit according to the manufacturer's data and the results were those listed in Table 4.

As to `CO[C@@]12[C@H](COC(N)=O)C3=C(C(=O)C(C)=C(N)C3=O)N1C[C@@H]1N[C@@H]12` [Mitomycin C, mitomycin C], the “necropsies of group B1” value in data set [1] (5 mg of mitomycin) was “many irritated and bloody adhesions, and thin organ walls and vessels”. For the same compound, the clinical condition entry in data set [1] (group B, high dose 5 mg/animal) is “always lethargic and exhibit very little activity”. Also, the survival time in data set [1] (group B, high dose 5 mg/animal, despite continuous analgesia) is given as at most 2 weeks. Moreover, the “Observations (necropsy)” value is “Significant weight loss. Viscera affected” in data set [1] (group B-1, healthy rats, 5 mg, 1 week, 2 animals, listed as Mito); “all the abdominal organs are in a relaxed and retracted state (with kidneys that appear necrotic and liver that appears collapsed), the omentum can be ruptured upon contact, and the large intestine obstructed” in data set [1] (group B-1, healthy rats, 5 mg, 1 week, 2 animals, listed as mitomycin); “intestinal puncture” in data set [1] (group B-1, healthy rats, 5 mg, 5 days, 1 animal); “Organs with thinning and bloody walls; also recorded: Many adhesions” in data set [1] (group B-2, healthy rats, 0.1 mg, 1 week, 1 animal); “Greenish liquid in abdomen, peritonitis; also recorded: high degree of adhesions” in data set [1] (group B-2, healthy rats, 0.1 mg, 2 months, 2 animals, listed as Mito); “the intestine and an omentum are hematic” in data set [1] (group B-2, healthy rats, 0.1 mg, 2 months, 2 animals, listed as mitomycin). The “Observations (necropsy)” value was “Evisceration” in data set [1] (group B-2, healthy rats, 0.1 mg, 24 h, 2 animals); “Endpoint criterion” in data set [2] (1 week, 1 animal); “Endpoint criterion” in data set [2] (2 weeks, 2 animals); “Endpoint criterion” in data set [2] (72 h, 3 animals). Further, the “outcome of group E” value in data set [2] is recorded as “all the animals had to be sacrificed due to endpoint criterion”; in data set [2] (listed as mitomycin), “Half of the animals were found dead the first night after surgery”. Further, in data set [3] (group E (DHD + mitomycin C 5 mg/animal), only such group among the treatments), the “mutated KRAS in the plasma, assessment” value was “positive mutated KRAS in the plasma”. The “Mutated KRAS event no.” value in data set [3] (group B (healthy rats, mitomycin)) turned out to be 0; in data set [3] (group E (DHD + Mito 5 mg/animal)), 524.
